Reference: ChEMBL document CHEMBL5465560, “Selectivity Literature for EUbOPEN Chemogenomic Library” (2024)

Experiments:
[1] = molecular target: T1, cGMP-dependent protein kinase 1 (Homo sapiens) (UniProt Q13976); assay: Selectivity interaction (KinomeScan (DiscoverX)) EUB0000695a PRKG1; conditions: at 100 nM
T1 sequence (whole entry): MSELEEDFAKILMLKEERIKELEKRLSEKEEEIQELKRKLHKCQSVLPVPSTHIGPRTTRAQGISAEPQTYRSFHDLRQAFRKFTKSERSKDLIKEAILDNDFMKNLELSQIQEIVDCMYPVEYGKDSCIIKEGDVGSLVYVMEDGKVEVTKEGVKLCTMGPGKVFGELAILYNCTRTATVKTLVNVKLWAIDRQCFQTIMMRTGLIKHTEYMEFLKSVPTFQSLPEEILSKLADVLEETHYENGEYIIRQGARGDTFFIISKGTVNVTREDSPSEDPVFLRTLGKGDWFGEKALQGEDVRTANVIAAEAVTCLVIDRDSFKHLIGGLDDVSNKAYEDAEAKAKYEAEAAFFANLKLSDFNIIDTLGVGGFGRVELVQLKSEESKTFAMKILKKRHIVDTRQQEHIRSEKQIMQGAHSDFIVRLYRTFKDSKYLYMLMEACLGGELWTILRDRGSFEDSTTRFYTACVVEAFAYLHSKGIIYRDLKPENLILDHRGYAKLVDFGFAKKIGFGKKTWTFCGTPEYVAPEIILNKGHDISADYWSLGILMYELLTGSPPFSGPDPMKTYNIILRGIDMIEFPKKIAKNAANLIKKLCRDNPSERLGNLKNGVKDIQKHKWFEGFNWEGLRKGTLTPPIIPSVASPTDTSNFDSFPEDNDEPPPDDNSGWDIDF

[2] = molecular target: T2, Ephrin type-B receptor 6 (Homo sapiens) (UniProt O15197); assay: Selectivity interaction (Ambit KINOMEscan and KiNATiv profiling in Jurkat cells) EUB0000090b EPHB6; format: cell-based; conditions: at 1 µM
T2 sequence (whole entry): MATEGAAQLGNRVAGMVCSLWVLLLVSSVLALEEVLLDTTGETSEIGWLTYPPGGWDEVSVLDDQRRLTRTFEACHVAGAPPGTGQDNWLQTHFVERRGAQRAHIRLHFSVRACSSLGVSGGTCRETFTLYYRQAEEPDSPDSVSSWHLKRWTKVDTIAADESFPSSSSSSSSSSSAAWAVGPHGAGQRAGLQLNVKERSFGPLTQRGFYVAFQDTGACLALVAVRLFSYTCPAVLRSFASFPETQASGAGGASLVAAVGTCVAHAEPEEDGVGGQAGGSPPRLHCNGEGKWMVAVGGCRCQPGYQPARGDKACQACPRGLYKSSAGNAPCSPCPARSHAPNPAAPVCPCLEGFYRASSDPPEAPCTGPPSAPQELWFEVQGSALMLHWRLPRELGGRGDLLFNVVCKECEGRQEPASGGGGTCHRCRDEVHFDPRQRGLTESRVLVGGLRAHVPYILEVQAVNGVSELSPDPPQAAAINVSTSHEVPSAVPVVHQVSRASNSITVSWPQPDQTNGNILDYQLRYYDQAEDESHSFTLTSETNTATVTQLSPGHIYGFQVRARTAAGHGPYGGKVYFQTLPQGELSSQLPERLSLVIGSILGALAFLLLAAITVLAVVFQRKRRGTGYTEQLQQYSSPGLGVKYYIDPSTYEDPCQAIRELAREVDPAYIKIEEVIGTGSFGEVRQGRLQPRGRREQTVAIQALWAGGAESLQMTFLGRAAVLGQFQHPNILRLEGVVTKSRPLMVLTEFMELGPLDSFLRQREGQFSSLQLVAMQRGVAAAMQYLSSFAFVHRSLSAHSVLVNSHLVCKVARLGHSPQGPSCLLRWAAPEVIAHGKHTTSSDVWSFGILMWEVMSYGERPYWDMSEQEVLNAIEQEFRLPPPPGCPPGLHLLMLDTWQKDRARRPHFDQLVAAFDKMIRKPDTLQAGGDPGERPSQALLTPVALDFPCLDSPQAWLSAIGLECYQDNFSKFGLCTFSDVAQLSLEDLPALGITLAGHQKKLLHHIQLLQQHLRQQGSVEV

[3] = molecular target: T3, Serine/threonine-protein kinase PLK4 (Homo sapiens) (UniProt O00444); assay: Selectivity interaction (KinomeScan (DiscoverX)) EUB0001079a PLK4; conditions: at 1 µM
T3 sequence (whole entry): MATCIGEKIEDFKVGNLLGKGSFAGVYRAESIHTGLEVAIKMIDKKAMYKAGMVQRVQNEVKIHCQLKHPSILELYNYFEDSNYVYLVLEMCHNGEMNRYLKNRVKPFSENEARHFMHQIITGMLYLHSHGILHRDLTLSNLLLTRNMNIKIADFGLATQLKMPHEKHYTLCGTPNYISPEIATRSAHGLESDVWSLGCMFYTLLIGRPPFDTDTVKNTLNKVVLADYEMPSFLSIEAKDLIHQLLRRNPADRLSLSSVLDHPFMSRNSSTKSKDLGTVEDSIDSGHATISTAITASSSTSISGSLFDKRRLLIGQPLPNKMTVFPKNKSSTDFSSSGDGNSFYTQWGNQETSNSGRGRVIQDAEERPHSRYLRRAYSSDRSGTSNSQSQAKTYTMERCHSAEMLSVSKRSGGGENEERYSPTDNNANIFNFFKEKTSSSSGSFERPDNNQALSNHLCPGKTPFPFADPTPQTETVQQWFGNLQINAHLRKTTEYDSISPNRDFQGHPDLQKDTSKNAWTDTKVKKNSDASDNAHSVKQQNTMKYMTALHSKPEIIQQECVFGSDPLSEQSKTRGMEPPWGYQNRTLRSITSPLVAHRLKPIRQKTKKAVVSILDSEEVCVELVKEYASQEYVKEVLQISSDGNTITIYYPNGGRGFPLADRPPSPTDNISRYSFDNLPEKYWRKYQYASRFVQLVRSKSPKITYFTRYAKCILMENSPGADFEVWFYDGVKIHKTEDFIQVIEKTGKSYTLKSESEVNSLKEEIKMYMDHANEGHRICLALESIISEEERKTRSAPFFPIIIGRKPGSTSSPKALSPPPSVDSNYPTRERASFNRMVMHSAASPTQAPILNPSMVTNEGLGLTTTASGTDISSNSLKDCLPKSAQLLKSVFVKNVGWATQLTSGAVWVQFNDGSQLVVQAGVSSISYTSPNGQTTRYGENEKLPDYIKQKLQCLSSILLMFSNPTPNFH

[4] = molecular target: Serine/threonine-protein kinase 33 (Homo sapiens) (UniProt Q9BYT3); assay: Selectivity interaction (KinomeScan (DiscoverX)) EUB0001619a STK33; conditions: at 1 µM
Chain of Serine/threonine-protein kinase 33 (Homo sapiens) (Q9BYT3 whole entry, looked up): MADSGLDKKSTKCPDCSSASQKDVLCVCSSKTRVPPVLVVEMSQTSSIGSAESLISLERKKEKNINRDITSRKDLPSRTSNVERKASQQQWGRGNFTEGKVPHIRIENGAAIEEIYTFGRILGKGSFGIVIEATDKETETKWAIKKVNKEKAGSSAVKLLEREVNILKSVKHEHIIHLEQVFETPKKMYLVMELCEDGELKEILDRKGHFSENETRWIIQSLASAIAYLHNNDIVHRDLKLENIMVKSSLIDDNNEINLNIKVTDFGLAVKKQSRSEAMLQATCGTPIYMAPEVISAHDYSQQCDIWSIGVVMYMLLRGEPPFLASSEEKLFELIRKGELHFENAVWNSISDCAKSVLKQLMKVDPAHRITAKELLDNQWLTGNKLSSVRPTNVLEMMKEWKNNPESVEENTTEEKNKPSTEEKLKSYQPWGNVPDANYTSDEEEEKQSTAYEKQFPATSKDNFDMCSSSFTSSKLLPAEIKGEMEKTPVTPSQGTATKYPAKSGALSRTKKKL

Cc1cc(F)c(C(=O)Nc2cccc(-c3nncn3C(C)C)n2)cc1-n1cnc(C2CC2)c1
% of control [1]: 100%

CN(C)C/C=C/C(=O)Nc1ccc(C(=O)N2CCCC(Nc3ncc(Cl)c(-c4c[nH]c5ccccc45)n3)C2)cc1 (centres undefined)
% of control [2]: 76%

Nc1cnc(N2CCc3cc(S(=O)(=O)Nc4c(F)cc(Cl)cc4F)cc(N4CCCC4=O)c32)nc1 [TP-020n]
% of control [3]: 100%

N#Cc1cccc(-c2c[nH]c3ncnc(N4CCOCC4)c23)c1
% of control [4]: 60%
